The record followed here is PubChem BioAssay (NCI).

SMILES strings stand for the structures.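 Test compounds were applied to cells in 96-well plates for 48 hours at 5 doses. GI50 is the concentration that inhibits growth by half. TGI denotes the concentration required for complete inhibition of growth.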

Among the test systems are COLO 205 colon; DU-145 prostate; HCC-2998 colon; HCT-116 colon; HL-60(TB) leukemia; HOP-62 NSCLC; LOX IMVI melanoma; MCF7 breast; NCI-H23 lung; SK-MEL-2 melanoma.
Holding throughout (assay): growth of human tumour cells (NCI), 48 h

As for `O=C(N/N=C/c1ccc2c(c1)CCC2)c1ccccc1O`, the TGI was over 100 µM in the assay on COLO 205 colon; over 100 µM in the assay on DU-145 prostate; 28.3 µM in the assay with HCC-2998 colon; 43.7 µM in the assay on HCT-116 colon; over 100 µM in the assay on HL-60(TB) leukemia; 38 µM in the assay on HOP-62 NSCLC. The TGI in the assay on LOX IMVI melanoma is over 100 µM; with MCF7 breast, 34 µM; with NCI-H23 lung it was 82.2 µM; in the assay with SK-MEL-2 melanoma it was 60 µM.
`CC(CN1CCN(CCOCCO)CC1)CN1c2ccccc2Sc2ccc(Cl)cc21` (stereo not given): the GI50 was 1.69 µM in the assay with COLO 205 colon; 5.05 µM with DU-145 prostate; 1.91 µM in the assay on HCC-2998 colon; 2.03 µM in the assay with HCT-116 colon; 1.76 µM in the assay on HL-60(TB) leukemia; 3.52 µM with HOP-62 NSCLC. Moreover, the GI50 with LOX IMVI melanoma is 1.74 µM; in the assay with MCF7 breast, 2.64 µM; with NCI-H23 lung, 10.8 µM; in the assay on SK-MEL-2 melanoma, 1.87 µM. Moreover, the TGI with COLO 205 colon is 3.18 µM; with DU-145 prostate, 17 µM; in the assay on HCC-2998 colon, 3.51 µM; in the assay on HCT-116 colon, 4.35 µM; in the assay with HL-60(TB) leukemia, 4.01 µM; in the assay with HOP-62 NSCLC it was 13.4 µM. The TGI was 3.27 µM in the assay with LOX IMVI melanoma, 6.61 µM with MCF7 breast, 24.2 µM in the assay on NCI-H23 lung and 3.63 µM in the assay on SK-MEL-2 melanoma.
In the case of `Nc1ncnc2[nH]ncc12`, the GI50 is 1.55 µM in the assay with COLO 205 colon; 0.358 µM with DU-145 prostate; 0.251 µM with HCC-2998 colon; 0.511 µM in the assay on HCT-116 colon; 0.361 µM in the assay with HL-60(TB) leukemia; 2.23 µM with HOP-62 NSCLC. Further, the GI50 with LOX IMVI melanoma is 0.34 µM; in the assay with MCF7 breast, 0.435 µM; in the assay with NCI-H23 lung, 1.59 µM; in the assay with SK-MEL-2 melanoma, 0.369 µM. Further, the TGI in the assay with COLO 205 colon was over 67.3 µM; with DU-145 prostate, 18 µM; with HCC-2998 colon, 4.85 µM; in the assay on HCT-116 colon it was 10.5 µM; in the assay on HL-60(TB) leukemia, 2.56 µM; in the assay with HOP-62 NSCLC, over 100 µM. The TGI in the assay with LOX IMVI melanoma was over 41 µM; in the assay with MCF7 breast, over 100 µM; in the assay on NCI-H23 lung it was 38.1 µM; in the assay on SK-MEL-2 melanoma it was 2.91 µM.
Turning to `C[C@]12CC[C@H]3[C@@H](CCC4=CC(=O)CC[C@@H]43)[C@@H]1CC[C@@H]2OC(=O)CCc1ccccc1`, the GI50 was 16.3 µM in the assay on COLO 205 colon; 15.6 µM with DU-145 prostate; 29.7 µM in the assay on HCC-2998 colon; 19.3 µM in the assay on HCT-116 colon; 2.41 µM in the assay on HL-60(TB) leukemia; 20.5 µM with HOP-62 NSCLC. Besides, the GI50 was 15.6 µM in the assay with LOX IMVI melanoma, 15.3 µM in the assay with MCF7 breast, 19.9 µM in the assay with NCI-H23 lung and 41 µM in the assay with SK-MEL-2 melanoma. The TGI in the assay on COLO 205 colon was 40.1 µM; with DU-145 prostate it was 32.5 µM; in the assay on HCC-2998 colon, over 78.2 µM; with HCT-116 colon it was 43.9 µM; in the assay with HL-60(TB) leukemia, 35.5 µM; in the assay on HOP-62 NSCLC, 39.6 µM. The TGI in the assay on LOX IMVI melanoma is 29.1 µM; with MCF7 breast, 31.1 µM; in the assay with NCI-H23 lung, 44.1 µM; in the assay with SK-MEL-2 melanoma it was over 100 µM.
On to `COc1ccc(-c2n[nH]nc2-c2cc(OC)c3c(c2OC)OCO3)cc1`, for which the GI50 with COLO 205 colon was 1.19 µM; in the assay on DU-145 prostate it was 1.61 µM; in the assay on HCC-2998 colon, 1.7 µM; in the assay on HCT-116 colon, 0.424 µM; with HL-60(TB) leukemia, 0.293 µM; in the assay on HOP-62 NSCLC, 1.45 µM. The GI50 was 0.746 µM with LOX IMVI melanoma, 0.48 µM in the assay with MCF7 breast, 1.25 µM in the assay on NCI-H23 lung and 0.596 µM in the assay with SK-MEL-2 melanoma. The TGI was 5.57 µM with COLO 205 colon; 13.6 µM in the assay with DU-145 prostate; 19.3 µM in the assay on HCC-2998 colon; 19.2 µM in the assay with HCT-116 colon; 0.975 µM with HL-60(TB) leukemia; over 66.1 µM in the assay with HOP-62 NSCLC. Also, the TGI stood at 19 µM in the assay on LOX IMVI melanoma, 35.2 µM with MCF7 breast, 26.5 µM in the assay with NCI-H23 lung and 11.4 µM in the assay with SK-MEL-2 melanoma.
For the molecule `COc1ccc(-c2cc(-c3ccccc3)nc(SCCCC(=O)NO)n2)cc1`, the GI50 with COLO 205 colon is 2.08 µM; with DU-145 prostate, 1.06 µM; with HCC-2998 colon, 1.7 µM; with HCT-116 colon it was 0.531 µM; in the assay with HL-60(TB) leukemia it was 1.18 µM; with HOP-62 NSCLC, 0.994 µM. In addition, the GI50 with LOX IMVI melanoma was 0.24 µM; in the assay with MCF7 breast, 1.9 µM; in the assay with NCI-H23 lung, 1.51 µM; in the assay on SK-MEL-2 melanoma it was 2.3 µM. For the same molecule, the TGI with COLO 205 colon came to 6.94 µM; with DU-145 prostate, 9.58 µM; in the assay on HCC-2998 colon, 3.81 µM; with HCT-116 colon, 12.7 µM; with HL-60(TB) leukemia it was 7 µM; in the assay with HOP-62 NSCLC it was 8.88 µM. Also, the TGI was 1.95 µM with LOX IMVI melanoma, 10 µM in the assay with MCF7 breast, 4.75 µM in the assay on NCI-H23 lung and 9.26 µM in the assay with SK-MEL-2 melanoma.
Regarding `Clc1cc(Cl)c(OCC#CI)cc1Cl`, the GI50 in the assay on COLO 205 colon is 1.57 µM; with DU-145 prostate, 3.01 µM; in the assay on HCC-2998 colon, 19.6 µM; in the assay on HCT-116 colon, 1.75 µM; in the assay on HL-60(TB) leukemia, 2 µM; in the assay on HOP-62 NSCLC it was 4.08 µM. The GI50 is 1.33 µM in the assay with LOX IMVI melanoma, 1.69 µM in the assay with MCF7 breast, 12.6 µM with NCI-H23 lung and 7.98 µM in the assay on SK-MEL-2 melanoma. The TGI was determined as 3.06 µM in the assay with COLO 205 colon; 10 µM in the assay on DU-145 prostate; 33.8 µM in the assay on HCC-2998 colon; 3.47 µM in the assay on HCT-116 colon; 5.22 µM in the assay on HL-60(TB) leukemia; 14.2 µM with HOP-62 NSCLC. Further, the TGI in the assay with LOX IMVI melanoma came to 2.74 µM; with MCF7 breast, 3.58 µM; with NCI-H23 lung, 26.7 µM; with SK-MEL-2 melanoma, 21.3 µM.
Consider `CNC(=O)OCc1c(COC(=O)NC)c(C)n(-c2ccc(Br)cc2)c1C`, for which the TGI in the assay on COLO 205 colon came to 27.5 µM; in the assay with DU-145 prostate, 36.2 µM; with HCC-2998 colon, 32.2 µM; in the assay on HCT-116 colon, 25.8 µM; with HL-60(TB) leukemia, 31.9 µM; in the assay with HOP-62 NSCLC, 29.1 µM. The TGI with LOX IMVI melanoma is 23.9 µM; with MCF7 breast, 25.9 µM; in the assay on NCI-H23 lung, 35.4 µM; in the assay with SK-MEL-2 melanoma, 31 µM.
